Earlier results as cited in publication PMC2750848 (Journal of medicinal chemistry, 2008).
Marks after values point to notes of the source that are not given here.

Tested on: M. tuberculosis H37Rv

Substance: 5′-O-[N-(salicyl)sulfamoyl]adenosine [Compound 4]
- MIC99 (Fe-deficient) (Fe-deficient): 0.39 ^i µM
- MIC99 (Fe-rich) (Fe-rich): 1.56 ^i µM
